For 30 molecules, IC50 results are on record in US11420961B2, “Heterocyclic compounds” (Hoffmann-La Roche Inc., priority 2017, dated 2022).

The experiment concerns the target T1, MAGL (recombinant wild-type) (Homo sapiens, UniProt Q99685).
T1 sequence (Q99685 1-303): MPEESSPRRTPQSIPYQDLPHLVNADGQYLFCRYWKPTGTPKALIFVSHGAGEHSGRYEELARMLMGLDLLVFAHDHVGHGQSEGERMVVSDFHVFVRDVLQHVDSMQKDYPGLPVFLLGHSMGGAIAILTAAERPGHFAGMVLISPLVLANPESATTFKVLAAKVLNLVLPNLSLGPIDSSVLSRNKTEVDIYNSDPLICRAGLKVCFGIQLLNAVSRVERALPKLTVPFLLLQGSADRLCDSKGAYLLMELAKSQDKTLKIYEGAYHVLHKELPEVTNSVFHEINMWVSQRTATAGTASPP
Briefly: 4-NPA assay: MAGL inhibitory activity by hydrolysis of 4-nitrophenylacetate, absorbance at 405 nm. Type of experiment: biochemical. The settings on record: 4-NPA assay (values without footnote [a]). The procedure:
Compounds were profiled for MAGL inhibitory activity by measuring the enzymatic activity of MAGL by following the hydrolysis of 4-nitorphenylacetate resulting in 4-nitrophenol, which absorbs at 405-412 nm (G. G. Muccioli, G. Labar, D M. Lambert, Chem. Bio. Chem. 2008, 9, 2704-2710). This assay is hereinafter abbreviated “4-NPA assay”.
The 4-NPA assay was carried out in 384 well assay plates (black with clear bottom, non-binding surface treated, Corning Ref. 3655) in a total volume of 40 μL. Compound dilutions were made in 100% DMSO (VWR Chemicals 23500.297) in a polypropylene plate in 3-fold dilution steps to give a final concentration range in the assay from 25 μM to 1.7 nM. 1 μL compound dilutions (100% DMSO) were added to 19 μL MAGL (recombinant wild-type) in assay buffer (50 mM TRIS (GIBCO, 15567-027), 1 mM EDTA (Fluka, 03690-100 ml)). The plate was shaked for 1 min at 2000 rpm (Variomag Teleshake) and then incubated for 15 min at RT. To start the reaction, 20 μL 4-Nitrophenlyacetate (Sigma N-8130) in assay buffer with 6% EtOH was added. The final concentrations in the assay were 1 nM MAGL and 300 μM 4-Nitrophenylacetate. After shaking (1 min, 2000 rpm) and 5 min incubation at RT, the absorbance at 405 nm was measured for a first time (Molecular Devices, SpectraMax Paradigm). A second measurement was then done after incubation for 80 min at RT. From the two measurements, the slope was calculated by substracting the first from the second measurement.

For the molecule `O=C1COc2ccc(C(=O)N3CCC([C@@H](c4ccccc4)c4ccc(F)cc4)CC3)cc2N1` (single isomer, unassigned) [Example 6], the IC50 was found to be 0.9 nM.

With `O=C1COc2ccc(C(=O)N3CCC([C@H](c4ccccc4)c4ccc(F)cc4)CC3)cc2N1` (single isomer, unassigned) [Example 7], the IC50 was 0.9 nM. Consider `COc1ccc([C@H](c2ccccc2)C2CCN(C(=O)c3ccc4c(c3)NC(=O)CO4)CC2)cc1OC` (single isomer, unassigned) [Example 8], for which the IC50 is 4 nM. In the case of `COc1ccc([C@@H](c2ccccc2)C2CCN(C(=O)c3ccc4c(c3)NC(=O)CO4)CC2)cc1OC` (single isomer, unassigned) [Example 9], the half-maximal inhibitory concentration (IC50) was 0.3 nM. As to `COc1ccc([C@H](c2ccccc2)C2CCN(C(=O)c3ccc4c(c3)NC(=O)CO4)CC2)cc1` (single isomer, unassigned) [Example 10], the half-maximal inhibitory concentration (IC50) amounted to 1.9 nM. To `COc1ccc([C@@H](c2ccccc2)C2CCN(C(=O)c3ccc4c(c3)NC(=O)CO4)CC2)cc1` (single isomer, unassigned) [Example 11] belongs 0.6 nM; to `COc1cccc([C@H](c2ccccc2)C2CCN(C(=O)c3ccc4c(c3)NC(=O)CO4)CC2)c1` (single isomer, unassigned) [Example 12], 0.4 nM; to `COc1cccc([C@@H](c2ccccc2)C2CCN(C(=O)c3ccc4c(c3)NC(=O)CO4)CC2)c1` (single isomer, unassigned) [Example 13], 0.5 nM. Regarding `Cc1ccc([C@H](c2ccccc2)C2CCN(C(=O)c3ccc4c(c3)NC(=O)CO4)CC2)cc1` (single isomer, unassigned) [Example 14], the 50% inhibitory concentration (IC50) turned out to be 0.5 nM. The value for `Cc1ccc([C@@H](c2ccccc2)C2CCN(C(=O)c3ccc4c(c3)NC(=O)CO4)CC2)cc1` (single isomer, unassigned) [Example 15] was 1.1 nM. The value for `Cc1cccc([C@H](c2ccccc2)C2CCN(C(=O)c3ccc4c(c3)NC(=O)CO4)CC2)c1` (single isomer, unassigned) [Example 16] was 0.5 nM. To `Cc1cccc([C@@H](c2ccccc2)C2CCN(C(=O)c3ccc4c(c3)NC(=O)CO4)CC2)c1` (single isomer, unassigned) [Example 17] belongs 0.2 nM; to `O=C1COc2ccc(C(=O)N3CCC(C(c4ccc(F)cc4)c4cccc(OCCOCCF)c4)CC3)cc2N1` (single isomer, unassigned) [Example 94, 6-[4-[(S or R)-[3-[2-(2-Fluoroethoxy)ethoxy]phenyl]-(4-fluorophenyl)methyl]piperidine-1-carbonyl]-4H-1,4-benzoxazin-3-one], 0.4 nM. Take `O=C1COc2ccc(C(=O)N3CCC([C@@H](c4ccc(F)cc4)c4cccc(OCCOCCF)c4)CC3)cc2N1` (single isomer, unassigned) [Example 95, 6-[4-[(R or S)-[3-[2-(2-fluoroethoxy)ethoxy]phenyl]-(4-fluorophenyl)methyl]piperidine-1-carbonyl]-4H-1,4-benzoxazin-3-one]: the half-maximal inhibitory concentration (IC50) was found to be 1.4 nM. To `O=C1COc2ccc(C(=O)N3CCC(C(c4ccccc4)c4ccc(OCCOCCF)cc4)CC3)cc2N1` (single isomer, unassigned) [Example 96, 6-[4-[(S or R)-[4-[2-(2-Fluoroethoxy)ethoxy]phenyl]-phenyl-methyl]piperidine-1-carbonyl]-4H-1,4-benzoxazin-3-one] belongs 0.2 nM; to `O=C1COc2ccc(C(=O)N3CCC(C(c4ccccc4)c4ccc(OCCOCCF)cc4)CC3)cc2N1` (single isomer, unassigned) [Example 97, 6-[4-[(R or S)-[4-[2-(2-Fluoroethoxy)ethoxy]phenyl]-phenyl-methyl]piperidine-1-carbonyl]-4H-1,4-benzoxazin-3-one], 7.4 nM. The value for `O=C1COc2ccc(C(=O)N3CCC(C(c4ccccc4)c4cccc(F)n4)CC3)cc2N1` (single isomer, unassigned) [Example 98, 6-[4-[(S or R)-(6-Fluoro-2-pyridyl)-phenyl-methyl]piperidine-1-carbonyl]-4H-1,4-benzoxazin-3-one] was 1.8 nM; that for `O=C1COc2ccc(C(=O)N3CCC(C(c4ccccc4)c4cccc(F)n4)CC3)cc2N1` (single isomer, unassigned) [Example 99, 6-[4-[(R or S)-(6-fluoro-2-pyridyl)-phenyl-methyl]piperidine-1-carbonyl]-4H-1,4-benzoxazin-3-one] was 2.6 nM; that for `O=C1COc2ccc(C(=O)N3CCC(C(c4ccccc4)c4ccc(F)nc4)CC3)cc2N1` (single isomer, unassigned) [Example 102, 6-[4-[(S or R)-(6-Fluoro-3-pyridyl)-phenyl-methyl]piperidine-1-carbonyl]-4H-1,4-benzoxazin-3-one] was 3.5 nM. The value for `O=C1COc2ccc(C(=O)N3CCC(C(c4ccccc4)c4ccc(F)nc4)CC3)cc2N1` (single isomer, unassigned) [Example 103, 6-[4-[(R or S)-(6-Fluoro-3-pyridyl)-phenyl-methyl]piperidine-1-carbonyl]-4H-1,4-benzoxazin-3-one] was 2.2 nM; that for `COc1ccc(C(c2ccc(F)cc2)C2CCN(C(=O)c3ccc4c(c3)NC(=O)CO4)CC2)cc1OC` (single isomer, unassigned) [Example 104, 6-[4-[(S or R)-(3,4-Dimethoxyphenyl)-(4-fluorophenyl)methyl]piperidine-1-carbonyl]-4H-1,4-benzoxazin-3-one] was 0.3 nM. Turning to `COc1ccc(C(c2ccc(F)cc2)C2CCN(C(=O)c3ccc4c(c3)NC(=O)CO4)CC2)cc1OC` (single isomer, unassigned) [Example 105, 6-[4-[(R or S)-(3,4-Dimethoxyphenyl)-(4-fluorophenyl)methyl]piperidine-1-carbonyl]-4H-1,4-benzoxazin-3-one], the IC50 came out at 0.8 nM.

Consider `O=C1COc2ccc(C(=O)N3CCC(C(c4ccc(F)cc4)c4ccc(OCCOCCF)cc4)CC3)cc2N1` (single isomer, unassigned) [Example 107, 6-[4-[(R or S)-[4-[2-(2-Fluoroethoxy)ethoxy]phenyl]-(4-fluorophenyl)methyl]piperidine-1-carbonyl]-4H-1,4-benzoxazin-3-one], for which the IC50 is 0.2 nM. To `O=C1COc2ccc(C(=O)N3CCC(C(c4ccc(F)cc4)c4ccc(OCCOCCF)cc4)CC3)cc2N1` (single isomer, unassigned) [Example 108, 6-[4-[(S or R)-[4-[2-(2-Fluoroethoxy)ethoxy]phenyl]-(4-fluorophenyl)methyl]piperidine-1-carbonyl]-4H-1,4-benzoxazin-3-one] belongs 9.6 nM; to `O=C1COc2ccc(C(=O)N3CCC(C(c4ccc(F)cc4)c4ccnc(F)c4)CC3)cc2N1` (single isomer, unassigned) [Example 110, 6-[4-[(S or R)-(4-Fluorophenyl)-(2-fluoro-4-pyridyl)methyl]piperidine-1-carbonyl]-4H-1,4-benzoxazin-3-one], 6.2 nM. In the case of `O=C1COc2ccc(C(=O)N3CCC(C(c4ccc(F)cc4)c4ccnc(F)c4)CC3)cc2N1` (single isomer, unassigned) [Example 111, 6-[4-[(R or S)-(4-Fluorophenyl)-(2-fluoro-4-pyridyl)methyl]piperidine-1-carbonyl]-4H-1,4-benzoxazin-3-one], the IC50 came out at 1.5 nM. The value for `Cc1ccc(C(c2ccc(F)cc2)C2CCN(C(=O)c3ccc4c(c3)NC(=O)CO4)CC2)cc1` (single isomer, unassigned) [Example 112, 6-[4-[(S or R)-(4-Fluorophenyl)-(p-tolyl)methyl]piperidine-1-carbonyl]-4H-1,4-benzoxazin-3-one] was 0.3 nM; that for `Cc1ccc(C(c2ccc(F)cc2)C2CCN(C(=O)c3ccc4c(c3)NC(=O)CO4)CC2)cc1` (single isomer, unassigned) [Example 113, 6-[4-[(R or S)-(4-Fluorophenyl)-(p-tolyl)methyl]piperidine-1-carbonyl]-4H-1,4-benzoxazin-3-one] was 0.4 nM; that for `O=C1COc2ccc(C(=O)N3CCC(C(c4ccc(F)cc4)c4ccc(F)nc4)CC3)cc2N1` (single isomer, unassigned) [Example 114, 6-[4-[(S or R)-(4-Fluorophenyl)-(6-fluoro-3-pyridyl)methyl]piperidine-1-carbonyl]-4H-1,4-benzoxazin-3-one] was 4 nM. The value for `O=C1COc2ccc(C(=O)N3CCC(C(c4ccc(F)cc4)c4ccc(F)nc4)CC3)cc2N1` (single isomer, unassigned) [Example 115, 6-[4-[(R or S)-(4-Fluorophenyl)-(6-fluoro-3-pyridyl)methyl]piperidine-1-carbonyl]-4H-1,4-benzoxazin-3-one] was 1.4 nM.

What is called IC50 is the concentration that gives 50% inhibition.
